Source: patent publication US20200281932A1, “FORMULATIONS OF COPANLISIB” (Bayer Pharma Aktiengesellschaft, priority 2017, published 2020)
Counter-ions that a name gives are not always drawn. Like-named read-outs stand apart in the source and are kept apart here.

Assays:
[1] = Hydrolytic stability of copanlisib in aqueous solutions (HPLC); type: physicochemical; settings: water, buffer pH 7, 0.1 M hydrochloric acid and 0.1 M sodium hydroxide solution
Experimental: The stationary phase is an XBridge Shield HPLC column (150 mm×3.0 mm, 3.5 μm particle size). For peak separation, gradient elution with a flow rate of 0.5 mL/min is chosen using a sodium dodecyl sulfate ion pair eluent (in water with phosphoric acid) as mobile phase A, and a sodium dodecyl sulfate ion pair eluent (in acetonitrile with 20% water and phosphoric acid) as mobile phase B. The applied gradient profile contains four steps running from 40% to 50% mobile phase B within 5 min, from 50% to 65% mobile phase B within 25 min and from 65% to 100% mobile phase B within another 5 min, followed by a 10 min isocratic phase at 100% mobile phase B. The column temperature is kept at 25° C. and the injection volume is 3.0 μL. […] (flow rate of 0.5 ml/min). […] The impurity was assayed at a wavelength of 210 nm and taken into account to determine the degradation products. The different aqueous solutions (0.05% copanlisib; after addition of 50% 2-propanol, [buffer solution filtered with 0.5 μm membrane filter]) were stored at 25° C. and 70° C. for 24 h and one week. An analytical HPLC-method has been developed to determine assay and organic impurities of copanlisib as well as degradation products.

[2] = system: relapsed or refractory indolent B-cell lymphoma; assay: Copanlisib in patients with relapsed or refractory indolent B-cell lymphoma: tumor response; type: in vivo, human
Experimental: (§1) Methods: Patients with indolent B-cell non-Hodgkin lymphoma (4 subtypes: follicular (FL), marginal zone (MZL), small lymphocytic (SLL) and lymphoplasmacytoid/Waldenström macroglobulinemia (LPL-WM)) and relapsed after, or refractory to, ≥2 prior lines of treatment were eligible. […] Copanlisib (60 mg, I.V.) was intermittently administered on days 1, 8 and 15 of a 28-day cycle. The primary efficacy endpoint was objective tumor response rate (ORR) as assessed per independent radiologic review (Cheson et al., JCO 20:579, 2007).

[3] = Copanlisib in patients with relapsed or refractory indolent B-cell lymphoma: adverse events; type: in vivo, human
Experimental: as §1

[4] = full analysis set, 60 mg I.V. on days 1, 8 and 15 of a 28-day cycle

## COc1c(OCCCN2CCOCC2)ccc2c1N=C(NC(=O)c1cnc(N)nc1)N1CCN=C21 [copanlisib dihydrochloride, 2-amino-N-[7-methoxy-8-(3-morpholin-4-ylpropoxy)-2,3-dihydroimidazo[1,2-c]quinazolin-5-yl]pyrimidine-5-carboxamide dihydrochloride]
0.1M Hydrochloric acid, 25° C.
  Descriptive term (according to Ph. Eur./USP): freely soluble
Buffer (citrate) pH 3, 25° C.
  Descriptive term (according to Ph. Eur./USP): freely soluble
Buffer (citrate) pH 4, 25° C.
  Descriptive term (according to Ph. Eur./USP): soluble
Buffer (citrate) pH 5, 25° C.
  Descriptive term (according to Ph. Eur./USP): very slightly soluble
Buffer (phosphate) pH 1, 25° C.
  Descriptive term (according to Ph. Eur./USP): freely soluble
Buffer (phosphate) pH 2, 25° C.
  Descriptive term (according to Ph. Eur./USP): freely soluble
Buffer (phosphate) pH 6, 25° C.
  Descriptive term (according to Ph. Eur./USP): practically insoluble
Buffer (phosphate) pH 7, 25° C.
  Descriptive term (according to Ph. Eur./USP): practically insoluble
Water, 25° C.
  Descriptive term (according to Ph. Eur./USP): freely soluble

## COc1c(OCCCN2CCOCC2)ccc2c1N=C(NC(=O)c1cnc(N)nc1)N1CCN=C21 [copanlisib, 2-amino-N-[7-methoxy-8-(3-morpholin-4-ylpropoxy)-2,3-dihydroimidazo[1,2-c]quinazolin-5-yl]pyrimidine-5-carboxamide]
[1]
  Hydrolytic stability in words: hydrolytic instability
[2]; at the time of primary analysis
  Median overall survival: had not yet been reached
[2]; full analysis set (range 0-736)
  KM-estimate of median PFS: 340 days
[2]; [4]
  overall response rate (ORR): 59.2%
  partial response (PR): 47.2%
  progressive disease: 2.1 % of patients
  stable disease: 29.6 % of patients
[3]; all grade
  AE of interest: colitis: 0.7%
  AE of interest: diarrhea: 18%
  AE of interest: lung infection: 14%
  AE of interest: neutropenia: 25%
  AE of interest: pneumonitis: 7%
  treatment-related AE: hypertension: 29%
  treatment-related AE: transient hyperglycemia: 49%
[3]; all-grade
  Laboratory toxicity: alanine aminotransferase: 23%
  Laboratory toxicity: aspartate aminotransferase: 28%
[3]; full analysis set
  colonic perforations: No colonic perforations occurred
  deaths (number): 6
  non-fatal opportunistic infections (number): two
[3]; grade 3+
  AE of interest: colitis: 0.7%
  AE of interest: diarrhea: 4%
  AE of interest: lung infection: 11%
  AE of interest: neutropenia: 19%
  AE of interest: pneumonitis: 1.4%
  treatment-related AE: hypertension: 23%
  treatment-related AE: transient hyperglycemia: 40%
[3]; grade-1
  Laboratory toxicity: alanine aminotransferase: 19%
  Laboratory toxicity: aspartate aminotransferase: 25%
[3]; lung infection, respiratory failure, and a thromboembolic event
  deaths attributed to copanlisib (number): 3
